Measurements reported in the supplement of paper PMC10307832.

What was measured:
Experiment in all cases: relative viability (nuclei count vs DMSO), 5 days (fraction); higher = more cells survive
FH535 + Vorinostat = compound: CC1=C(C=CC(=C1)[N+](=O)[O-])NS(=O)(=O)C2=C(C=CC(=C2)Cl)Cl [FH535] + O=C(CCCCCCC(=O)Nc1ccccc1)NO [Vorinostat] (partner 1 µM)
Method in brief: (§1)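 Lung cancer cell lines were pin-tool dosed in 1536-well plates on the day after seeding, with either a lone drug or a fixed anchor-drug dose plus five library-drug doses (not always all listed) in √10 steps. Nuclei were counted on 4× images after 5 days. Relative viability is the ratio of treated-well to vehicle-well nuclei counts, with each value a median of duplicate plates.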

FH535 + Dasatinib = compound: CC1=C(C=CC(=C1)[N+](=O)[O-])NS(=O)(=O)C2=C(C=CC(=C2)Cl)Cl [FH535] + Cc1nc(Nc2ncc(C(=O)Nc3c(C)cccc3Cl)s2)cc(N2CCN(CCO)CC2)n1 [Dasatinib] (partner 0.075 µM)
Method in brief: as §1

FH535 + Navitoclax = compound: CC1=C(C=CC(=C1)[N+](=O)[O-])NS(=O)(=O)C2=C(C=CC(=C2)Cl)Cl [FH535] + CC1(C)CCC(c2ccc(Cl)cc2)=C(CN2CCN(c3ccc(C(=O)NS(=O)(=O)c4ccc(N[C@H](CCN5CCOCC5)CSc5ccccc5)c(S(=O)(=O)C(F)(F)F)c4)cc3)CC2)C1 [Navitoclax] (partner 0.5 µM)
Method in brief: as §1

FH535 + Lapatinib = compound: CC1=C(C=CC(=C1)[N+](=O)[O-])NS(=O)(=O)C2=C(C=CC(=C2)Cl)Cl [FH535] + CS(=O)(=O)CCNCc1ccc(-c2ccc3ncnc(Nc4ccc(OCc5cccc(F)c5)c(Cl)c4)c3c2)o1 [Lapatinib] (partner 2 µM)
Method in brief: as §1

FH535 = compound: CC1=C(C=CC(=C1)[N+](=O)[O-])NS(=O)(=O)C2=C(C=CC(=C2)Cl)Cl [FH535]
Method in brief: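 Following overnight incubation at 37 °C, lung cancer cell lines in 1536-well plates were pinned with five library-drug doses (not always all listed) in √10 steps on vehicle-anchored plates. The cells then spent 5 days without medium change before a combined fix, permeabilisation and Hoechst stain, 4× imaging and MetaXpress nuclear counts. Viability is the treated-to-vehicle ratio of nuclei, taken as the median across plates. Only plates with control CV below 25% and at least one doubling passed.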

Cell Line | relative viability (FH535 + Vorinostat; first compound 0.04 µM) | relative viability (FH535 + Vorinostat; first compound 0.1265 µM) | relative viability (FH535 + Vorinostat; first compound 0.4 µM) | relative viability (FH535 + Vorinostat; first compound 1.265 µM) | relative viability (FH535 + Dasatinib; first compound 0.04 µM) | relative viability (FH535 + Dasatinib; first compound 0.1265 µM) | relative viability (FH535 + Dasatinib; first compound 0.4 µM) | relative viability (FH535 + Dasatinib; first compound 1.265 µM) | relative viability (FH535 + Navitoclax; first compound 0.04 µM) | relative viability (FH535 + Navitoclax; first compound 0.1265 µM) | relative viability (FH535 + Navitoclax; first compound 0.4 µM) | relative viability (FH535 + Navitoclax; first compound 1.265 µM) | relative viability (FH535 + Lapatinib; first compound 0.04 µM) | relative viability (FH535 + Lapatinib; first compound 0.1265 µM) | relative viability (FH535 + Lapatinib; first compound 0.4 µM) | relative viability (FH535 + Lapatinib; first compound 1.265 µM) | relative viability (FH535; 0.04 µM) | relative viability (FH535; 0.1265 µM) | relative viability (FH535; 0.4 µM) | relative viability (FH535; 1.265 µM)
LC-2-ad | 0.603 | 0.714 | 0.677 | 0.521 | 0.417 | 0.571 | 0.437 | 0.409 | 0.34 | 0.491 | 0.549 | 0.325 | 0.711 | 0.97 | 0.92 | 0.697 | 0.894 | 0.936 | 0.857 | 0.71
HCC-78 | 0.408 | 0.429 | 0.479 | 0.414 | 0.33 | 0.514 | 0.342 | 0.427 | 0.612 | 1.04 | 0.782 | 0.718 | 0.694 | 0.321 | 0.701 | 0.697 | 0.927 | 1 | 0.951 | 0.865
LOU-NH91 | 0.877 | 0.982 | 0.652 | 0.524 | 0.573 | 0.613 | 0.388 | 0.267 | 0.602 | 0.736 | 0.695 | 0.233 | 0.726 | 0.667 | 0.6 | 0.408 | 0.936 | 1.07 | 0.742 | 0.472
NCI-H1734 | 0.547 | 0.784 | 0.822 | 0.778 | – | 0.507 | 0.476 | 0.431 | 0.802 | 0.902 | 0.86 | 0.735 | 1.01 | 1.14 | 0.955 | 0.935 | 0.724 | 1.07 | 0.945 | 0.821
NCI-H596 | 0.579 | 0.511 | 0.569 | 0.544 | 0.673 | 0.574 | 0.604 | 0.55 | 0.856 | 0.967 | 1.05 | 0.874 | 1.06 | 1.03 | 0.985 | 0.94 | 0.926 | 0.865 | 0.975 | 0.908
NCI-H23 | 0.399 | 0.535 | 0.564 | 0.378 | 0.769 | 0.529 | 0.61 | 0.731 | – | 0.821 | 0.818 | 0.703 | – | 1.17 | 0.936 | 0.913 | 0.635 | 1.01 | 0.967 | 0.687
NCI-H647 | 0.442 | 0.63 | 0.408 | 0.462 | 0.183 | 0.193 | 0.129 | 0.152 | 1.06 | 1.2 | 1.1 | 0.919 | 0.971 | 1.08 | 0.914 | 0.864 | 0.872 | 1.05 | 0.906 | 0.801
NCI-H1755 | 0.616 | 0.807 | 0.752 | 0.707 | 0.353 | 0.46 | 0.404 | 0.422 | 0.996 | 0.997 | 1.01 | 0.79 | 1.04 | 0.985 | 0.944 | 0.949 | 1 | 1.05 | 0.944 | 0.953
SW 1573 | 0.614 | 0.666 | 1.04 | 0.66 | 0.42 | 0.414 | 0.344 | 0.454 | 0.938 | 1.01 | 0.837 | 0.768 | 1 | 1.19 | 1.18 | 0.98 | 0.908 | 1.01 | 0.899 | 0.836
UMC-11 | 0.346 | 0.384 | 0.309 | 0.469 | 0.446 | 0.454 | 0.416 | 0.422 | 0.312 | 0.315 | 0.298 | 0.262 | 0.858 | 0.994 | 0.885 | 0.765 | 0.94 | 0.877 | 0.9 | 0.911
HCC-15 | 0.733 | 0.85 | 0.838 | 0.696 | 0.552 | 0.632 | 0.505 | 0.49 | 0.624 | 0.739 | 0.613 | 0.482 | 0.825 | 0.679 | 0.733 | 0.534 | 0.928 | 0.998 | 0.841 | 0.786
NCI-H2126 | 0.72 | 0.782 | 0.727 | 0.567 | 0.598 | 0.573 | 0.49 | 0.292 | 0.779 | 0.875 | 0.778 | 0.628 | 0.734 | 0.679 | 0.696 | 0.676 | 0.961 | 1.02 | 0.888 | 0.67
NCI-H2085 | 0.815 | 0.849 | 0.659 | 0.62 | 0.271 | 0.174 | 0.284 | 0.217 | 1.1 | 1.05 | 1.05 | 0.846 | 0.744 | 0.686 | 0.692 | 0.573 | 0.96 | 0.967 | 0.97 | 0.852
BEN | 0.51 | 0.583 | 0.548 | 0.525 | 0.247 | 0.351 | 0.258 | 0.214 | 0.0691 | 0.0603 | 0.0578 | 0.0625 | 0.678 | 0.674 | 0.604 | 0.398 | 0.92 | 0.946 | 0.862 | 0.653
PC-3 [JPC-3] | 0.757 | 0.769 | 0.687 | 0.529 | 1.05 | 0.812 | 0.837 | 0.749 | 0.778 | 0.753 | 0.762 | 0.57 | 0.405 | 0.39 | 0.444 | 0.39 | 0.971 | 1.04 | 0.906 | 0.621
NCI-H2228 | 0.585 | 0.698 | 0.977 | 0.593 | 0.49 | 0.502 | 0.552 | 0.402 | 0.826 | 1.1 | 0.841 | 0.728 | 0.574 | 1.15 | 1.2 | 0.927 | 0.884 | 1.01 | 0.985 | 0.896
COR-L23 | 0.442 | 0.462 | 0.422 | 0.343 | 0.447 | 0.437 | 0.38 | 0.222 | 0.992 | 1.14 | 0.886 | 0.567 | 0.953 | 0.958 | 0.901 | 0.549 | 0.98 | 1.03 | 0.842 | 0.573
NCI-H1915 | 0.44 | 0.481 | 0.534 | 0.532 | 0.292 | 0.306 | 0.287 | 0.3 | 0.745 | 0.822 | 0.777 | 0.69 | 0.867 | 0.826 | 0.852 | 0.795 | 0.863 | 1.03 | 0.906 | 0.792
